Test results as given in PMC8037784 (Cancers, 2021).
Several values for one entry are separate records, joined by “and”; a condition that tells them apart may be missing. Equal entries are not always repeated.

Assays:
CYP3A4 = details: cited from earlier work
in vivo = assay: in vivo; parameters: species or system Sprague-Dawley rats; details: Sprague-Dawley, rat, po, 3 mg/kg
Method: The HPLC system consisted of a chromatographic pump (LC−20AT), an online injector (SIL−20C) equipped with a 10 μL sample loop to inject the sample, and an ultraviolet detector (SPD-M20A).
(§1) A freely moving rat model was designed for the current study. The rats were anesthetized and immobilized on a board while undergoing computed tomography to localize the whole liver or a central area measuring 1.5 cm × 1.5 cm for the SBRT technique. For the whole liver field, the cranial margin was set 5 mm from the top of the diaphragm, and the caudal margin was set 5 mm lower than the liver margin. The whole liver was targeted for irradiation. […] Data were collected from six rats per group.
A radiation dose of 2 Gy was considered the daily conventional EBRT dose or the off-target dose around the target that received an ablation RT dose. A dose of 9 Gy was used to simulate SBRT. […] Rats were initially anesthetized with pentobarbital (50 mg/kg, i.p.) and remained anesthetized throughout the experimental period. […]
PK parameters, including the area under the concentration–time curve (AUC), clearance (CL), elimination half-life (t1/2), volume of distribution at steady state (Vss), and mean residence time (MRT), were calculated using the PK calculation software WinNonlin Standard Edition, Version 1.1 (Scientific Consulting, Apex, NC, USA) by a compartmental method.

[1] = Organ distribution of lenvatinib in rats with or without liver RT; type: in vivo, Sprague-Dawley rats; details: rat; for concentration at 6 h: Sprague-Dawley, po, 3 mg/kg; for concentration at 6 h / Concentration of lenvatinib in spleen: 6 h after administration
Source text: as §1
A radiation dose of 2 Gy was considered the daily conventional EBRT dose or the off-target dose around the target that received an ablation RT dose. A dose of 9 Gy was used to simulate SBRT. […] Rats were initially anesthetized with pentobarbital (50 mg/kg, i.p.) and remained anesthetized throughout the experimental period. After surgery, the rats were placed in an experimental cage and allowed to recover for 1 day.
The brain, liver, heart, spleen, lung, and kidney were collected and weighed. These collected samples were stored at −20 °C until analysis.
The thawed organ samples were homogenized in 50% aqueous acetonitrile (the ratio of sample weight and volume was 1:5), and the homogenate was centrifuged at 13,000× g for 10 min at 4 °C. The supernatant was collected, placed in brown Eppendorf tubes, and stored at −20 °C until analysis. Briefly, each organ sample (50 μL) was combined with 150 μL of IS solution (diethylstilbestrol) for protein precipitation. Finally, 20 μL of filtrate was subjected to HPLC analysis.

[2] = RT2Gy concurrent with lenvatinib
[3] = RT9Gy concurrent with lenvatinib

concentration at 60 min (in vivo): 940 ng/mL
concentration at 6 h ([1]; brain, Concentration of lenvatinib in brain, 3 mg/kg p.o., RT2Gy concurrent with lenvatinib): 0 ng/mL
concentration at 6 h ([1]; brain, Concentration of lenvatinib in brain, 3 mg/kg p.o., RT2Gy followed by lenvatinib): 0 ng/mL
concentration at 6 h ([1]; brain, Concentration of lenvatinib in brain, 3 mg/kg p.o., RT9Gy concurrent with lenvatinib): 0 ng/mL
concentration at 6 h ([1]; brain, Concentration of lenvatinib in brain, 3 mg/kg p.o., RT9Gy followed by lenvatinib): 0 ng/mL
concentration at 6 h ([1]; brain, Concentration of lenvatinib in brain, 3 mg/kg p.o., lenvatinib only): 0 ng/mL
concentration at 6 h ([1]; heart, Concentration of lenvatinib in heart, 3 mg/kg p.o., RT2Gy concurrent with lenvatinib): 32 ± 40 ng/mL
concentration at 6 h ([1]; heart, Concentration of lenvatinib in heart, 3 mg/kg p.o., RT2Gy followed by lenvatinib): 74 ± 40 ng/mL
concentration at 6 h ([1]; heart, Concentration of lenvatinib in heart, 3 mg/kg p.o., RT9Gy concurrent with lenvatinib): 15 ± 40 ng/mL
concentration at 6 h ([1]; heart, Concentration of lenvatinib in heart, 3 mg/kg p.o., RT9Gy followed by lenvatinib): 78 ± 40 ng/mL
concentration at 6 h ([1]; heart, Concentration of lenvatinib in heart, 3 mg/kg p.o., lenvatinib only): 50 ± 50 ng/mL
concentration at 6 h ([1]; kidney, Concentration of lenvatinib in kidney, 3 mg/kg p.o., RT2Gy concurrent with lenvatinib): 113 ± 30 ng/mL
concentration at 6 h ([1]; kidney, Concentration of lenvatinib in kidney, 3 mg/kg p.o., RT2Gy followed by lenvatinib): 230 ± 50 ng/mL
concentration at 6 h ([1]; kidney, Concentration of lenvatinib in kidney, 3 mg/kg p.o., RT9Gy concurrent with lenvatinib): 129 ± 50 ng/mL
concentration at 6 h ([1]; kidney, Concentration of lenvatinib in kidney, 3 mg/kg p.o., RT9Gy followed by lenvatinib): 223 ± 50 ng/mL
concentration at 6 h ([1]; kidney, Concentration of lenvatinib in kidney, 3 mg/kg p.o., lenvatinib only): 175 ± 50 ng/mL
concentration at 6 h ([1]; liver, Concentration of lenvatinib in liver, 3 mg/kg p.o., RT2Gy concurrent with lenvatinib): 72 ± 60 ng/mL
concentration at 6 h ([1]; liver, Concentration of lenvatinib in liver, 3 mg/kg p.o., RT2Gy followed by lenvatinib): 158 ± 90 ng/mL
concentration at 6 h ([1]; liver, Concentration of lenvatinib in liver, 3 mg/kg p.o., RT9Gy concurrent with lenvatinib): 93 ± 50 ng/mL
concentration at 6 h ([1]; liver, Concentration of lenvatinib in liver, 3 mg/kg p.o., RT9Gy followed by lenvatinib): 161 ± 70 ng/mL
concentration at 6 h ([1]; liver, Concentration of lenvatinib in liver, 3 mg/kg p.o., lenvatinib only): 104 ± 50 ng/mL
concentration at 6 h ([1]; lung, Concentration of lenvatinib in lung, 3 mg/kg p.o., RT2Gy concurrent with lenvatinib): 33 ± 40 ng/mL
concentration at 6 h ([1]; lung, Concentration of lenvatinib in lung, 3 mg/kg p.o., RT2Gy followed by lenvatinib): 92 ± 30 ng/mL
concentration at 6 h ([1]; lung, Concentration of lenvatinib in lung, 3 mg/kg p.o., RT9Gy concurrent with lenvatinib): 42 ± 50 ng/mL
concentration at 6 h ([1]; lung, Concentration of lenvatinib in lung, 3 mg/kg p.o., RT9Gy followed by lenvatinib): 75 ± 30 ng/mL
concentration at 6 h ([1]; lung, Concentration of lenvatinib in lung, 3 mg/kg p.o., lenvatinib only): 108 ± 40 ng/mL
concentration at 6 h ([1]; spleen, Concentration of lenvatinib in spleen, 3 mg/kg p.o., RT2Gy followed by lenvatinib): 73 ± 40 ng/mL
concentration at 6 h ([1]; spleen, Concentration of lenvatinib in spleen, 3 mg/kg p.o., RT9Gy followed by lenvatinib): 60 ± 60 ng/mL
concentration at 6 h ([1]; spleen, Concentration of lenvatinib in spleen, 3 mg/kg p.o., lenvatinib only): 30 ± 50 ng/mL
Concentration of lenvatinib in spleen ([1]; 3 mg/kg p.o., RT2Gy concurrent with lenvatinib): 0 µg/mL
Concentration of lenvatinib in spleen ([1]; 3 mg/kg p.o., RT9Gy concurrent with lenvatinib): 0 µg/mL
Detection of lenvatinib in the brain ([1]; 3 mg/kg p.o., with or without RT): not detected
Heart concentration decreased compared with the sham group [1, 2]: 36.0%
Kidney concentration decreased compared with the sham group [1, 2]: 35.4%
Liver concentration decreased compared with the sham group [1, 2]: 30.8%
Lung concentration decreased compared with the sham group [1, 2]: 69.4%
Spleen concentration decreased compared with the sham group [1, 2]: 100.0%
Heart concentration increased compared with the sham group ([1]; RT2Gy followed by lenvatinib): 48.0%
Kidney concentration increased compared with the sham group ([1]; RT2Gy followed by lenvatinib): 31.4%
Liver concentration increased compared with the sham group ([1]; RT2Gy followed by lenvatinib): 51.9%
Lung concentration decreased compared with the sham group ([1]; RT2Gy followed by lenvatinib): 15% and 14.8%
Spleen concentration increased compared with the sham group ([1]; RT2Gy followed by lenvatinib): 143.3%
Heart concentration decreased compared with the sham group [1, 3]: 70.0%
Kidney concentration decreased compared with the sham group [1, 3]: 26.2%
Liver concentration decreased compared with the sham group [1, 3]: 10.6%
Lung concentration decreased compared with the sham group [1, 3]: 61.1%
Spleen concentration decreased compared with the sham group [1, 3]: 100%
Heart concentration increased compared with the sham group ([1]; RT9Gy followed by lenvatinib): 56.0%
Kidney concentration increased compared with the sham group ([1]; RT9Gy followed by lenvatinib): 27.4%
Liver concentration increased compared with the sham group ([1]; RT9Gy followed by lenvatinib): 54.8%
Lung concentration decreased compared with the sham group ([1]; RT9Gy followed by lenvatinib): 31% and 30.6%
Spleen concentration increased compared with the sham group ([1]; RT9Gy followed by lenvatinib): 100%
Increase of concentration in the heart ([1]; sequential RT regimen): 50%
Increase of concentration in the kidneys ([1]; sequential RT regimen): 30%
Increase of concentration in the liver ([1]; sequential RT regimen): 50%
Increase of concentration in the spleen ([1]; sequential regimen): more than 100%
Compound: COc1cc2nccc(Oc3ccc(NC(=O)NC4CC4)c(Cl)c3)c2cc1C(N)=O [lenvatinib, Lenvatinib]
Oxidative metabolism (CYP3A4): mediated primarily by CYP3A4
